# Counter-ions that a name gives are not always drawn.
# Target: T1, N-type calcium channel (Homo sapiens, UniProt Q00975)
# T1 construct: endogenous in cells
# Assay: Determination of inhibitory activity on N-type calcium channel (Fura-2 calcium influx, KCl depolarization, with nifedipine)
# Type: cell-based
# Conditions: compound at final concentration of 3 μM, depolarized by 80 mM potassium chloride, Fura-2 fluorescence, read-out: Inhibitory activity on Ca influx (%)
# Procedure: Determination of Inhibitory Activity on N-Type Calcium Channel:
# Cell line was differentiated according to the method described in FEBS Letters, 235, 178-182, 1988. The cell was loaded with fluorescent reagent, Fura-2•AM (at the final concentration of 10 μM), at 37° C. for 30 minutes and suspended in Krebs-buffer containing HEPES (25 mM) to obtain the cell suspension. The obtained cell suspension was incubated in the presence or absence of the compounds of the present invention with nifedipine for 5 minutes. The cell was depolarized by adding potassium chloride solution (at the final concentration of 80 mM) thereto and then a fluorescence intensity at the emission wavelength of 500 nm excited by the UV of 340 nm and 380 nm alternately was measured using the intracellular calcium analyzer (Nippon Bunko Co., CAF-110). The inhibitory activity of the compound of the present invention (at the final concentration of 3 μM) on calcium influx into the cell was calculated from the difference in changing the fluorescence intensity at peak (ΔR) according to the following equation. [formula]
# T1 sequence (Q00975 whole entry): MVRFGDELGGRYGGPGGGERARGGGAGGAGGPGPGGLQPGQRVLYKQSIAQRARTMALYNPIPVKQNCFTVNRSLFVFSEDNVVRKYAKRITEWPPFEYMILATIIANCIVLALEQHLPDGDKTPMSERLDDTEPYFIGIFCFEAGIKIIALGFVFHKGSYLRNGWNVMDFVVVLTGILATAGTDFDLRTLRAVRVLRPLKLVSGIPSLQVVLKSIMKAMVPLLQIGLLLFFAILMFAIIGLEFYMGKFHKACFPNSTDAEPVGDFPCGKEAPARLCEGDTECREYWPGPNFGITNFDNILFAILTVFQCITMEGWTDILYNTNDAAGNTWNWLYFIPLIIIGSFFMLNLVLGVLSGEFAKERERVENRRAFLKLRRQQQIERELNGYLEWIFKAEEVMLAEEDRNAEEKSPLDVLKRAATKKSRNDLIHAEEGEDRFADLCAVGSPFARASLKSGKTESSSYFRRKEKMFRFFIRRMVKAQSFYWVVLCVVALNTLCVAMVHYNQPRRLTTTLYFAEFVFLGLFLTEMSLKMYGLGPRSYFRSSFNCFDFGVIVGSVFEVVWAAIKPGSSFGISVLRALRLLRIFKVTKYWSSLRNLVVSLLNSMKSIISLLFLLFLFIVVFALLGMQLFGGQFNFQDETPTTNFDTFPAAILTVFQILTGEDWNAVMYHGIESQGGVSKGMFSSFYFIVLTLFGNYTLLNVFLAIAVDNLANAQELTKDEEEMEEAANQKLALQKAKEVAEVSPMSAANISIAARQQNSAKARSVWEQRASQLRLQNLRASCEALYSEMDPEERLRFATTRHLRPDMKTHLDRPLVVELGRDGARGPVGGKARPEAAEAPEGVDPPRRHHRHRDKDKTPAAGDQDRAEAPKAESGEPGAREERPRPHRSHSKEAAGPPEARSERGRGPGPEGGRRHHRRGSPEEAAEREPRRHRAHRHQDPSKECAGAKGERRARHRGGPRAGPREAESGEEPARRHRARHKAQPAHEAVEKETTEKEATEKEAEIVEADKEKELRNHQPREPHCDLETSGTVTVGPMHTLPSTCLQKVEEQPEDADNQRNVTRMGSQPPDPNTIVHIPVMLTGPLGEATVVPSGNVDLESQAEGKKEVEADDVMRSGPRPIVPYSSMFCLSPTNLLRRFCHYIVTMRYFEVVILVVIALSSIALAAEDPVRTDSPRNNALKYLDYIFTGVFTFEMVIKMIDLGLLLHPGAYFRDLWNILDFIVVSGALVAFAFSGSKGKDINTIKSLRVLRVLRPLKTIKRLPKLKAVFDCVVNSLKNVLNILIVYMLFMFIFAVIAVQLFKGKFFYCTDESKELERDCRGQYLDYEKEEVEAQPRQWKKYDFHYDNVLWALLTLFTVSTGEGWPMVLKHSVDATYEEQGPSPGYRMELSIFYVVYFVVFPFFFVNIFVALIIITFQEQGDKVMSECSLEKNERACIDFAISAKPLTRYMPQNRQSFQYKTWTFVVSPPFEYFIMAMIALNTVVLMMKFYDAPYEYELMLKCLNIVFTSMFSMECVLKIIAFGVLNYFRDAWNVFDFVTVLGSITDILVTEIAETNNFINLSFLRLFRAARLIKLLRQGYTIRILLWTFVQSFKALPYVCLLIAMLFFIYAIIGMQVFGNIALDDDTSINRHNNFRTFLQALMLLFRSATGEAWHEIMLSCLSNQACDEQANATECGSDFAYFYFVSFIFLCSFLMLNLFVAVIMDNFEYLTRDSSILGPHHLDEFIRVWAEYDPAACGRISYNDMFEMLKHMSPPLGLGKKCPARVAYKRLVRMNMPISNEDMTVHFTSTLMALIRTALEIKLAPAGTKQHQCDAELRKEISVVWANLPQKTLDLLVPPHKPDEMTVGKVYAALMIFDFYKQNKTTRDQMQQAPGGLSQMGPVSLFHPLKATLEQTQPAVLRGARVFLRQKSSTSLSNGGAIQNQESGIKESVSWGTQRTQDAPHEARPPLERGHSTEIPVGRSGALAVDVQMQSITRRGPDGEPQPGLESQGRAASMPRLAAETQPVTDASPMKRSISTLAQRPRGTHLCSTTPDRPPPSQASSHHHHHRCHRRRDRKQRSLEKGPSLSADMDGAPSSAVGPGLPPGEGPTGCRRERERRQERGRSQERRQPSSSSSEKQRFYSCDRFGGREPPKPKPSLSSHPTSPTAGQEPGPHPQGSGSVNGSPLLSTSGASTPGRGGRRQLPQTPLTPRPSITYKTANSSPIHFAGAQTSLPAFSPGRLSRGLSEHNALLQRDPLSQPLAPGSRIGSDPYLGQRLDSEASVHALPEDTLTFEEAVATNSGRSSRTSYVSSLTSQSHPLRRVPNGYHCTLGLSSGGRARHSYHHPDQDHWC
row,Structure (SMILES),inhibition at 3 µM [%]
1,"CC(C)(C)OC(=O)N[C@@H](CCC(=O)OCc1ccc([N+](=O)[O-])cc1)C(=O)OC1CCCC1 [Example 2(29), (2S)-4-(4-nitrobenzyloxycarbonyl)-2-t-butoxycarbonylaminobutanoic acid.cyclopentyl ester]",75
2,"COc1ccc(CNC(=O)[C@H](CSCC2CCCCC2)NC(=O)OC(C)(C)C)cc1 [Example 2(80), (2R)-N-(4-methoxybenzyl)-3-cyclohexylmethylthio-2-t-butoxycarbonylamino-propanamide]",87
3,"CC(C)(C)OC(=O)N[C@@H](COCC1CCCCC1)C(=O)NCc1ccc([N+](=O)[O-])cc1 [Example 2(86), (2S)-N-(4-nitrobenzyl)-3-cyclohexylmethoxy-2-t-butoxycarbonylamino-propanamide]",83
4,"COc1ccc(CNC(=O)[C@H](COCC2CCCCC2)NS(=O)(=O)c2ccccc2)cc1 [Example 6(22), (2S)-N-(4-methoxybenzyl)-3-cyclohexylmethoxy-2-phenylsulfonylamino-propanamide]",79
5,"COc1ccc(CNC(=O)[C@H](COCC2CCCCC2)NC(=O)C2CCCCC2)cc1 [Example 6(27), (2S)-N-(4-methoxybenzyl)-3-cyclohexylmethoxy-2-cyclohexylcarbonylamino-propanamide]",72
6,"COc1ccc(CNC(=O)[C@H](CSCC2CCCCC2)NC(=O)[C@@H]2CSCN2C(=O)OC(C)(C)C)cc1 [Example 6(44), (2R)-N-(4-methoxybenzyl)-3-cyclohexylmethylthio-2-((4R)-3-t-butoxycarbonyl-thiazolidin-4-ylcarbonylamino)propanamide]",86
7,"CC(C)(C)OC(=O)N1CSC[C@H]1C(=O)N[C@@H](CSCC1CCCCC1)C(=O)NCc1ccc(Oc2ccccc2)cc1 [Example 6(68), (2R)-N-(4-penoxybenzyl)-3-cyclohexylmethylthio-2-((4R)-3-t-butoxycarbonyl-thiazolidin-4-ylcarbonylamino)propanamide]",73
8,"O=C(N[C@@H](CSCC1CCCCC1)C(=O)NCc1ccc(Oc2ccccc2)cc1)[C@@H]1CSCN1 [Example 9(13), (2R)-N-(4-phenoxybenzyl)-3-cyclohexylmethylthio-2-((4R)-thiazolidin-4-ylcarbonylamino)propanamide.hydrochloride]",88
9,COc1ccc(CNC(=O)[C@H](COCC2CCCCC2)NC(=O)OC(C)(C)C)cc1 [compound 2],75
